Data as given in ChEMBL document CHEMBL1201862, “PubChem BioAssay data set” (2004).
Activity calls are given as the source filed them.

Columns and labels:
[1] = DRD fibroblast viability loss – cell-based, non-viral oncogenic, luminescence, dose response (AID 1934); assay type: functional; conditions: Homo sapiens
BJ [2] = experiment: BJ-TERT-LT-ST fibroblast viability loss – cell-based, RAS-independent, luminescence, dose response (AID 1935); assay type: functional; conditions: Homo sapiens;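 further: BJ fibroblasts immortalized with TERT plus LT and ST oncogenes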
Cytochrome P450 2C19 = Cytochrome P450 2C19 (Homo sapiens, UniProt P33261); experiment: Cytochrome panel assay with activity outcomes. Panel member name: p450-cyp2c19 Compounds with AC50 equal or less than 10 uM are considered active; assay type: functional; conditions: read-out: AC50
Chain of Cytochrome P450 2C19 (P33261 whole entry): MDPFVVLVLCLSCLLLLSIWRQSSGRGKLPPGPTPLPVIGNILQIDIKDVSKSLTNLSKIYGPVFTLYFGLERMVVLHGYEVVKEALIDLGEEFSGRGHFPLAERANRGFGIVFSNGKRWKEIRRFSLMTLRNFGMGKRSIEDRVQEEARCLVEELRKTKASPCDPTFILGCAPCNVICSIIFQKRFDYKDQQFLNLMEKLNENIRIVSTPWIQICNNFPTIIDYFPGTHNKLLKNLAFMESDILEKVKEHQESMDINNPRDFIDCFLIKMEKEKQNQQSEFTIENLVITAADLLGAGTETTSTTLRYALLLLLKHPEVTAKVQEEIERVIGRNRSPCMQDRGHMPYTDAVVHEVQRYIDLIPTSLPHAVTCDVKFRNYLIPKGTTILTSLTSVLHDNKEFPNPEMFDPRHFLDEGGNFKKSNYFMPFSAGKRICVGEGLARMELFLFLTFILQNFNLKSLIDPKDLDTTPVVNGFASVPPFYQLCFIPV

BJ [3] = experiment: BJ-TERT fibroblast viability loss – cell-based, RAS-independent, luminescence, dose response (AID 1933); assay type: functional; conditions: Homo sapiens
BJ [4] = experiment: cells; assay type: functional, cell-based, Homo sapiens; conditions: Homo sapiens, BJ
INS1 = experiment: INS-1E survival protection against cytokine death – cell-based, luminescence, retest, dose response (AID 449756); assay type: functional; conditions: Rattus norvegicus;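 further: cell death triggered by IL-1 beta plus TNF-alpha plus IFN-gamma mixture; protective hits raise ATP signal compared with cytokine alone wells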
Cytochrome P450 3A4 = Cytochrome P450 3A4 (Homo sapiens, UniProt P08684); conditions: Potency;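 further: confirmatory qHTS run detecting inhibitors and substrates of CYP3A4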
Chain of Cytochrome P450 3A4 (P08684 whole entry): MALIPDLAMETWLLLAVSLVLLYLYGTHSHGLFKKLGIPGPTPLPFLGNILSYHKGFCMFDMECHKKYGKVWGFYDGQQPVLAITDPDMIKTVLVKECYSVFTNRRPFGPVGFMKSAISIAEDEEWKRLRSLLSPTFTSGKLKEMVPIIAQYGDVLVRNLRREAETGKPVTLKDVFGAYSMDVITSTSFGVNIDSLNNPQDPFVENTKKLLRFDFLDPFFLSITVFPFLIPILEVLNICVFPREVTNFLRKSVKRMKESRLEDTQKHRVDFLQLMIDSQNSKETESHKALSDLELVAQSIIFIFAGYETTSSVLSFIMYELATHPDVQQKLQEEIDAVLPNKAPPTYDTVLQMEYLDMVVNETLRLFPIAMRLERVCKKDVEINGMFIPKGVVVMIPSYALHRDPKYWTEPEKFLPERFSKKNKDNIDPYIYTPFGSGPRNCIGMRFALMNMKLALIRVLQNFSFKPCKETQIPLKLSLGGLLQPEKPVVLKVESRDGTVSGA

[5] = target: T1, DNA repair and recombination protein RAD54-like (Homo sapiens, UniProt Q92698); experiment: RAD54 Holliday junction migration blockers – biochemical, fluorescence, cherry-picked samples, dose series, confirmation (AID 651657); assay type: functional
T1 sequence (Q92698 whole entry): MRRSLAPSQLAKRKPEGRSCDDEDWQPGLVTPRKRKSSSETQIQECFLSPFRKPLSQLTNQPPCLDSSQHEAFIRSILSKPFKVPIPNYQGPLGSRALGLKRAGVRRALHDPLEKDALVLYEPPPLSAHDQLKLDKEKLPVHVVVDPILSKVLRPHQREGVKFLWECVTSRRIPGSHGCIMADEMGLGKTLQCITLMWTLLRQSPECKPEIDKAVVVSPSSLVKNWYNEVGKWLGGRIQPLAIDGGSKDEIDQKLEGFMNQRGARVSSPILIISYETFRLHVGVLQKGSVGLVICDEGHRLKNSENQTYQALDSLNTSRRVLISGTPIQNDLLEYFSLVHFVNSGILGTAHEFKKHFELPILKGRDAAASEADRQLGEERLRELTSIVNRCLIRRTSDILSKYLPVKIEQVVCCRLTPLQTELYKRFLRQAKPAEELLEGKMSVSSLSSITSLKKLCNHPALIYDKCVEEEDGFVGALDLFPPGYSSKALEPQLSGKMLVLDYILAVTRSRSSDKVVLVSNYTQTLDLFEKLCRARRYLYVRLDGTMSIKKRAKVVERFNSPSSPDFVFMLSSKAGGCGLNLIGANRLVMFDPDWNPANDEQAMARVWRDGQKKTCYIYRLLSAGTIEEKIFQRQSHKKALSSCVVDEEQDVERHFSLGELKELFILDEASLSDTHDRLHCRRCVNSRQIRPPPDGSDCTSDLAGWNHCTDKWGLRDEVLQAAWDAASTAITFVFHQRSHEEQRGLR

[6] = target: T2, Short transient receptor potential channel 4 (Mus musculus, UniProt Q9QUQ5); experiment: calcium entry via TRPC4 opening agents – cell-based, HEK293 TRPC4/mu-opioid, Fluo-4 calcium, dose response (AID 434937); assay type: functional
T2 sequence (Q9QUQ5 whole entry): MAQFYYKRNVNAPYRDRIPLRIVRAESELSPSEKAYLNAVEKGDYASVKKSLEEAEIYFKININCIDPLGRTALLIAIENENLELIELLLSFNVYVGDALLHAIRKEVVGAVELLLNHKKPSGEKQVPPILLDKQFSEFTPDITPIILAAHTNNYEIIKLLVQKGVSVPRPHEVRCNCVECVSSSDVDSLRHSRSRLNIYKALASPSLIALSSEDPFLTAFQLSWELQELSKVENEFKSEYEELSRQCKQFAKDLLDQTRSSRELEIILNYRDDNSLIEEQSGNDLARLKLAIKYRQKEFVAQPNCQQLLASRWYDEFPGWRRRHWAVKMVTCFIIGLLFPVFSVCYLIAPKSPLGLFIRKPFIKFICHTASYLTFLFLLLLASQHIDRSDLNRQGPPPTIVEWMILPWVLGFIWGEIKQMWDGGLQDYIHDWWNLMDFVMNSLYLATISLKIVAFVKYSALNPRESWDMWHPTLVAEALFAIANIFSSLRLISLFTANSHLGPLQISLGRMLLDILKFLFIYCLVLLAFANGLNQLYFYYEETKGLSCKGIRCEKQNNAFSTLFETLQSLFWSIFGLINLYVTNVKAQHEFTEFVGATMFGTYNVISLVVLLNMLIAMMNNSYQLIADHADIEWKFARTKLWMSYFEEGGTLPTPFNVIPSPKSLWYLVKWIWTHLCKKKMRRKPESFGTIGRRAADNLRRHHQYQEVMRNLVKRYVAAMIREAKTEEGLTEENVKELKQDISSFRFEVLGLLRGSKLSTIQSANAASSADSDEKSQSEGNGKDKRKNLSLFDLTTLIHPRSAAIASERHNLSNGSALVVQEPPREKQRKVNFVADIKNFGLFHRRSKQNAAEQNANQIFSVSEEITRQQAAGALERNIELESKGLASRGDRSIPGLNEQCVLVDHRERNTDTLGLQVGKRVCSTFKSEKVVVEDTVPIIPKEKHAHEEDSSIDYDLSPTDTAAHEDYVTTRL

[7] = target: T2, Short transient receptor potential channel 4; experiment: block of DAMGO-driven TRPC4 calcium entry – cell-based, HEK293 TRPC4/mu-opioid, Fluo-4 calcium, dose response (AID 434942); assay type: functional;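 further: potency of inhibitors blocking the TRPC4 calcium response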
[8] = alpha-synuclein stem-loop luciferase translation blockers – H4 neuroglioma cells, luminescence, confirmation (AID 1988); assay type: functional, cell-based
[9] = Luminescence Cell-Based Dose Response HTS to Identify Inhibitors of 5'UTR Stem-Loop Driven Prion Protein mRNA Translation in H4 Neuroglioblastoma Cells. [Related pubchem assays: 1827 (Project Summary), 1813 (Primary HTS)]; assay type: functional
[10] = luciferase reporter signal suppression in cells – H4 neuroglioma cells, luminescence, dose response (AID 1990); assay type: functional, cell-based
[11] = target: T3, Replicative DNA helicase DnaB (Mycobacterium tuberculosis, UniProt P9WMR3); experiment: DnaB intein splicing inhibitors, dose response, biochemical, cell-free fluorescence (AID 449749); assay type: functional
T3 sequence (P9WMR3 whole entry): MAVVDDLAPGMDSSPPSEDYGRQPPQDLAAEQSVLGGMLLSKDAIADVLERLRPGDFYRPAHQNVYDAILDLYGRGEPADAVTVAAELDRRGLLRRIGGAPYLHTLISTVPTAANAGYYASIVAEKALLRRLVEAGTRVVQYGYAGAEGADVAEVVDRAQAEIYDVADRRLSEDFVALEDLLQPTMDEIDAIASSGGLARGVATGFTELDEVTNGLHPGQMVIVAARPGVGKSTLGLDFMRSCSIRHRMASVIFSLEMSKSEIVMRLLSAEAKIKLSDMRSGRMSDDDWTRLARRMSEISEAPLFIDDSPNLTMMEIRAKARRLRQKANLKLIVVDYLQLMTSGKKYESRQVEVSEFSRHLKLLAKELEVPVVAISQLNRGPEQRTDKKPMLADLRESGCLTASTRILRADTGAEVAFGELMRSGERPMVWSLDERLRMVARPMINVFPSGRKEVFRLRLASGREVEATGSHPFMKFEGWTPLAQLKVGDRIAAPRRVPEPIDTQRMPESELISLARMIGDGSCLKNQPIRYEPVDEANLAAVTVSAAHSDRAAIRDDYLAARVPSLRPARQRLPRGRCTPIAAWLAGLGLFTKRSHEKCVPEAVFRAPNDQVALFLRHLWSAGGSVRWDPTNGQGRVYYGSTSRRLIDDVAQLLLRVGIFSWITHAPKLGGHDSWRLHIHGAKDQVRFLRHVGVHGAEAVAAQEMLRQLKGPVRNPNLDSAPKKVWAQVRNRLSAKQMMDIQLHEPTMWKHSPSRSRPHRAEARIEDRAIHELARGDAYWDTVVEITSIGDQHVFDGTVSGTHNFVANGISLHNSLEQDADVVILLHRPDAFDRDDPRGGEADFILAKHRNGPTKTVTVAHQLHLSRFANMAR

Protein RecA = target: T4, Protein RecA (Mycobacterium tuberculosis, UniProt P9WHJ3); experiment: Fluorescence Cell-Free Homogeneous Dose Retest to Identify Inhibitors of RecA-Intein Splicing Activity. [Related pubchem assays (depositor defined):AID2097, AID2223, AID489010, AID492950]; assay type: functional
T4 sequence (P9WHJ3 whole entry): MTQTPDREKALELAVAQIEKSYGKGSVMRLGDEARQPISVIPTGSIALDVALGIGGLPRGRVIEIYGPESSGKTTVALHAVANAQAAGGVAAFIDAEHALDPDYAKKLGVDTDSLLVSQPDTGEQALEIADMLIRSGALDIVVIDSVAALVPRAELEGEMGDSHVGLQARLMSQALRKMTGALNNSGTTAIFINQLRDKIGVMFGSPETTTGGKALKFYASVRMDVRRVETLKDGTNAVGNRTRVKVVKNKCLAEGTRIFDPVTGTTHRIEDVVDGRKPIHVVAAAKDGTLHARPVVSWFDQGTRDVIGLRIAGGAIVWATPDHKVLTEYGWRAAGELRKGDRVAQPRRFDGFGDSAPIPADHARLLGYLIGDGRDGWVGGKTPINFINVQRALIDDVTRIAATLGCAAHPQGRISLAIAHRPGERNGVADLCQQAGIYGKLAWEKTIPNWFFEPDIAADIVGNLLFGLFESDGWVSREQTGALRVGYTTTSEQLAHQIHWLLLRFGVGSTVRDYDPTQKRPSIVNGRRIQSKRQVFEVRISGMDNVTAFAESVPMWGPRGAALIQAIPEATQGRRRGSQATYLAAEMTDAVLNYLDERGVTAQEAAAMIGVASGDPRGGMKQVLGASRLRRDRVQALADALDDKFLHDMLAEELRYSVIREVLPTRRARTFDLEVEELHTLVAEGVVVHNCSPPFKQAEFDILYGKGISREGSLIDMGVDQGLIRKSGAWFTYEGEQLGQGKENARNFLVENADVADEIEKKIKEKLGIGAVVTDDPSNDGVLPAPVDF

[12] = intracellular Trypanosoma cruzi inhibitors in host cells – cell-based, plate reader, cherry-pick samples, set 3, dose response (AID 651818); assay type: functional;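 further: compounds incubated with infected cells for about four days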
[13] = blockers of HIV-1 ZM109 envelope-driven cell-cell fusion – HeLa effector, CEM target cells, luciferase, cherry-pick, dose response (AID 652058); assay type: functional, cell-based;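 further: luciferase signal from HIV-1 Env mediated cell-cell fusion of effector and target cells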

COc1ccc(-c2nc(-c3cccc(C)c3)nc(N3CCN(C)CC3)c2C#N)cc1
EC50 [1]: 14.8 µM (inconclusive) | EC50 (BJ [2]): > 150 µM (not active) | AC50 (Cytochrome P450 2C19): 20 µM (inconclusive) | EC50 (BJ [3]): 16.5 µM (inconclusive) | EC50 (BJ [4]): 23.3 µM (active)

FC(F)(F)c1ccc(CN2C[C@@H]3C(c4ccc(C(F)(F)F)cc4)C4(c5cccnc5)CC3(C4)[C@H]2c2ccccc2)cc1 (stereo not given in full)
AC50 (INS1): 6.2 µM (active) | AC50 (Cytochrome P450 3A4): 31.6 µM (inconclusive)

CC(=O)OCC1OC(Oc2cc(OC(C)=O)c3c(=O)cc(-c4ccc(OC(C)=O)cc4)oc3c2)[C@@H](OC(C)=O)C(OC(C)=O)C1OC(C)=O (stereo not given in full)
AC50 (Cytochrome P450 3A4): 10 µM (inconclusive)

Cc1cc(Nc2ccc3c(c2)OCCO3)c2cccc(C)c2n1
AC50 [5]: 13.9 µM (active)

CCOC(=O)C1(CC2CC2)CCN(Cc2c[nH]nc2-c2ccccc2)CC1
EC50 [6]: 1.33 µM (active) | EC50 [7]: 0.944 µM (active)

CCCCNc1nc(C)nc2c1nc(-c1ccccc1)n2CC1CCN(C)CC1
AC50 (Cytochrome P450 3A4): 15.8 µM (inconclusive)

Nc1cc(N2CCCCC2)c([N+](=O)[O-])cc1Cl
EC50 [7]: 5.31 µM (active)

Cc1ccn2c(CNCCCn3cccn3)c(C(=O)N3CCCCCC3)nc2c1
EC50 [7]: 2.11 µM (active)

COc1ccc(C(=O)CN2CCN(CCN3C(=O)c4cccc5cccc(c45)C3=O)CC2)cc1
EC50 [8]: 15.3 µM (active) | AC50 [5]: 8.03 µM (active) | EC50 [9]: > 120 µM (not active) | EC50 [10]: 13.4 µM (active)

Cc1cccc(CN2CCCC(C(=O)Nc3ccccc3Oc3cccnc3)C2)c1 (stereo not given)
EC50 [7]: 4.22 µM (active)

CC1(C)C(O)C=C[C@@]2(C)C1CC(=O)O[C@@]1(C)C3=CC(=O)OC(c4ccoc4)[C@]3(C)CCC21 (stereo not given in full)
AC50 (Cytochrome P450 3A4): 2 µM (inconclusive)

Cc1nc2ccccc2c2oc(C(=O)NCCN3CCN(C)CC3)cc12
AC50 [5]: 39.9 µM (active)

COC(=O)C/N=C1/OC(=O)N2C(=O)C3=C4[C@@H](C[C@H]5C(=O)N(c6ccccc6)C(=O)[C@H]5[C@H]4[C@@]12Cc1ccccc1)[C@H]1C(=O)N(c2ccccc2)C(=O)[C@H]1[C@H]3C
AC50 (Cytochrome P450 3A4): 6.31 µM (inconclusive)

CCCn1c(-c2ccc(F)cc2)nc2c(NCCCN(CCO)CCO)nc(C)nc21
AC50 (Cytochrome P450 3A4): 15.8 µM (inconclusive)

Cc1nn(C(=O)CNS(=O)(=O)c2ccccc2)c(C)c1Sc1ccc(Cl)cc1
AC50 [11]: 4.2 µM (active) | EC50 [7]: 1.33 µM (active) | EC50 (Protein RecA): 17.2 µM (active)

Cc1ccc(N(CC(=O)NC2CCCC2)C(=O)CNC(=O)c2cccs2)cc1F
EC50 [7]: 5.96 µM (active)

CCN(CC)CCN=C(S)Nc1ccc2nc(N3CCN(CC)CC3)cc(C)c2c1
AC50 [5]: 15.3 µM (active)

CCCCCN1C2=NCCN2c2ccccc21
EC50 [7]: 0.841 µM (active)

C[C@@H]1CN([C@H](C)CO)C(=O)c2cccc(NC(=O)CCCCCC(=O)Nc3ccccc3N)c2O[C@H]1CN(C)Cc1ccc(-c2ccccc2)cc1
AC50 [12]: 2.18 µM (active)

C[C@@H]1CN([C@@H](C)CO)C(=O)c2cc(NS(=O)(=O)c3ccccc3)ccc2O[C@H]1CN(C)Cc1ccc(C(=O)Nc2ccccc2N)cc1
AC50 [12]: 4.83 µM (active)

Cc1ccc(S(=O)(=O)Nc2ccc3c(c2)CC(=O)N([C@H](C)CO)C[C@@H](C)[C@@H](CN(C)S(=O)(=O)c2ccccc2)O3)cc1
AC50 [12]: 2.27 µM (active)

C[C@@H]1CN([C@H](C)CO)C(=O)c2cccc(NC(=O)C3CCCCC3)c2O[C@H]1CN(C)Cc1ccc(C(F)(F)F)cc1
AC50 [12]: 2.83 µM (active)

COc1cccc(S(=O)(=O)N[C@@H]2CC[C@H](CCN)O[C@H]2CO)c1
AC50 [13]: 1.26 µM (active)

CCCc1nc(C(C)(C)O)c(C(=O)OCc2oc(=O)oc2C)n1Cc1ccc(-c2ccccc2-c2nnn[nH]2)cc1 [OLMESARTAN MEDOXOMIL]
AC50 (Cytochrome P450 3A4): 25.1 µM (inconclusive)
